Results: patent US20240246916A1, “7-NITRO-8-HYDROXYQUINOLINE DERIVATIVES, PREPARATION METHOD THEREFORE AND MEDICAL USE THEREOF” (Jiangsu Yahong Meditech Co., Ltd., priority 2021, published 2024)
Values after ≈ are worked out from the molar mass of the structure shown.

Tests used:
Assay type in all cases: cell-based
[1] = tested on: Acinetobacter baumannii (carbapenem-resistant clinical isolates; ATCC19606); experiment: MIC by micro broth dilution (CLSI), Acinetobacter baumannii; conditions: for MIC50 / MIC90: ATCC19606, Clinical strain; for MIC50 / MIC90 / MIC: Acinetobacter baumannii; for MIC50: read-out: MIC50; for MIC90: read-out: MIC90; for MIC: Standard strain ATCC19606, read-out: MIC
Outline: (§1)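 Duplicate same-patient isolates are excluded and quality control strains are run alongside. Inoculum prepared by direct colony suspension to 0.5 McFarland then diluted 100-fold to reach 10^5 CFU/mL in CAMHB. Drug spans 128 to 0.06 mg/L; incubation lasts 20 hours at 35±2° C.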

[2] = tested on: Bladder cancer cell line UM-UC-3; experiment: Inhibitory activity on cancer cells, CellTiter-Glo viability, UM-UC-3; conditions: Homo sapiens, UMUC3, 72 hours treatment
Description: (§2) HUVEC (purchased from Allcells Biological Technology (Shanghai) Co., Ltd.); UM-UC-3 (ATCC); LNCaP (ATCC); RM-1 (purchased from Nanjing Cobioer Biosciences Co., Ltd.) (1) On the first day, the cells were seeded in a 96-well plate, and the previous medium was poured off. 5 mL of DPBS was added to wash the cells, and then removed by a pipette and discarded. Then, 1 mL of trypsin (0.25%) was added, and the plate was placed in a cell culture incubator at 37 °C, 5% CO2 for digestion, and taken out after about 2 to 5 minutes. New corresponding medium was added, and pipetted to resuspend the cells evenly, and the cells were then counted with an automated cell counter. Regarding HUVEC, the medium used was endothelial cell complete medium; regarding UM-UC-3, the medium used was 89 v % EMEM+10 v % fetal bovine serum+1 v % penicillin-streptomycin double anti-body; regarding LNcaP, the medium used was 89 v % RPM11640+10 v % fetal bovine serum+1 v % penicillin-streptomycin double anti-body; and regarding RM1, the medium used was 89 v % DMEM+10 v % fetal bovine serum+1 v % penicillin-streptomycin double anti-body. (2) HUVEC cells were seeded in columns 1 to 11 of a 96-well plate (Corning, Cat. No. 3610) at a density of 2000 cells per well in 100 μL of medium, and the medium free of cell was added to the wells of column 12. The other three types of cells were also seeded, wherein UM-UC-3 and RM-1 cells were seeded at a density of 3000 cells per well, and LNCap cells were seeded at a density of 5000 cells per well. Then, the plate was placed in an incubator at 37° C., 5% CO2 for 24 hours. (3) On the second day, the compounds of the present invention and the reference drug nitroxoline (obtained according to the preparation method disclosed in the prior art) were diluted in gradient (2.5 folds, started at 100 μmol) to obtain 8 dose points (there were a total of 8 columns of wells; the first column of wells had the highest concentration, the concentration decreased in turn, and the last column of wells had the lowest concentration). 10 μL of the compound diluted in gradient was added to the 100 μL of cells in column 1 to column 10 with an 8-channel pipette. 10 μL of the corresponding medium containing 0.33 v % DMSO was added to column 11 and column 12. The plate was incubated in an incubator at 37° C., 5% CO2 for 72 hours (note: column 11 was used as MAX well with cells and no compounds; and column 12 was used as MIN well with no cells and no compounds). (4) After treating with the compounds of the present invention for 72 hours, the cell viability detection reagents in the above CellTiter-Glo® assay kit were added to the 96-well plate at 50 μL per well according to the instructions. The plate was shaken on a shaker in the dark for 5 to 10 minutes, and then the cell activity was determined by a multifunctional microplate reader. Finally, the growth inhibition of the compounds of the present invention on the cells was plotted by XLFIT 5.3 software, and the IC50 values of the compounds of the present invention were calculated.

[3] = tested on: Mouse prostate cancer cell line RM1; experiment: Inhibitory activity on cancer cells, CellTiter-Glo viability, RM1; conditions: 72 hours treatment
Description: as §2

[4] = tested on: Endothelial cell line HUVEC; experiment: Inhibitory activity on cells, CellTiter-Glo viability, HUVEC; conditions: Homo sapiens, 72 hours treatment
Description: as §2

[5] = tested on: Staphylococcus aureus (methicillin-resistant and sensitive clinical isolates; ATCC29213); experiment: MIC by micro broth dilution (CLSI), Staphylococcus aureus; conditions: for MIC50 / MIC90: Clinical strain; for MIC50: read-out: MIC50; for MIC90: read-out: MIC90; for MIC: Standard strain ATCC29213, read-out: MIC
Outline: as §1

[6] = tested on: Prostate cancer cell line LNcaP; experiment: Inhibitory activity on cancer cells, CellTiter-Glo viability, LNcaP; conditions: Homo sapiens, 72 hours treatment
Description: as §2

[7] = tested on: Escherichia coli (carbapenem-resistant clinical isolate; ATCC25922); experiment: MIC by micro broth dilution (CLSI), Escherichia coli; conditions: for MIC50 / MIC90: ATCC25922, Clinical strain; for MIC50 / MIC90 / MIC: Escherichia coli; for MIC50: read-out: MIC50; for MIC90: read-out: MIC90; for MIC: Standard strain ATCC25922, read-out: MIC
Outline: as §1

CCOC(=O)N1CCN(c2ccnc3c(O)c([N+](=O)[O-])cc(Cl)c23)CC1 [Example 52, Ethyl 4-(5-chloro-8-hydroxy-7-nitroquinolin-4-yl)piperazine-1-carboxylate]
MIC50 [1]: > 128 µg/mL | MIC90 [1]: > 128 µg/mL | MIC [1]: > 128 µg/mL | IC50 [2]: 4.71 µM | IC50 [3]: 1.42 µM | IC50 [4]: 0.53 µM | MIC50 [5]: 64 µg/mL (≈ 168 µM) | MIC90 [5]: 128 µg/mL (≈ 336 µM) | MIC [5]: 128 µg/mL (≈ 336 µM) | IC50 [6]: 0.58 µM | MIC50 [7]: > 128 µg/mL | MIC90 [7]: > 128 µg/mL | MIC [7]: > 128 µg/mL

O=C1CCN(c2ccnc3c(O)c([N+](=O)[O-])cc(Cl)c23)CC1 [Example 56, 1-(5-Chloro-8-hydroxy-7-nitroquinolin-4-yl)piperidin-4-one]
MIC50 [1]: > 128 µg/mL | MIC90 [1]: > 128 µg/mL | MIC [1]: > 128 µg/mL | IC50 [2]: 52.8 µM | IC50 [3]: 68.5 µM | IC50 [4]: 32.1 µM | MIC50 [5]: 64 µg/mL (≈ 199 µM) | MIC90 [5]: 64 µg/mL (≈ 199 µM) | MIC [5]: 128 µg/mL (≈ 398 µM) | IC50 [6]: 47.6 µM | MIC50 [7]: > 128 µg/mL | MIC90 [7]: > 128 µg/mL | MIC [7]: > 128 µg/mL

O=[N+]([O-])c1ccc2c(C3CCCCC3)ccnc2c1O [Example 32, 4-Cyclohexyl-7-nitroquinolin-8-ol]
MIC50 [1]: 32 µg/mL (≈ 118 µM) | MIC90 [1]: 32 µg/mL (≈ 118 µM) | MIC [1]: 32 µg/mL (≈ 118 µM) | IC50 [2]: 1.09 µM | IC50 [3]: 0.6 µM | IC50 [4]: 0.89 µM | MIC50 [5]: 1 µg/mL (≈ 3.67 µM) | MIC90 [5]: 1 µg/mL (≈ 3.67 µM) | MIC [5]: 1 µg/mL (≈ 3.67 µM) | IC50 [6]: 0.23 µM | MIC50 [7]: 64 µg/mL (≈ 235 µM) | MIC90 [7]: 64 µg/mL (≈ 235 µM) | MIC [7]: 64 µg/mL (≈ 235 µM)

CCOC(=O)C1CCN(c2ccnc3c(O)c([N+](=O)[O-])cc(F)c23)CC1 [Example 71, Ethyl 1-(5-fluoro-8-hydroxy-7-nitroquinolin-4-yl)piperidine-4-carboxylate]
MIC50 [1]: > 128 µg/mL | MIC90 [1]: > 128 µg/mL | MIC [1]: > 128 µg/mL | IC50 [2]: 6.8 µM | IC50 [3]: 2.51 µM | IC50 [4]: 2.7 µM | MIC50 [5]: 2 µg/mL (≈ 5.5 µM) | MIC90 [5]: 4 µg/mL (≈ 11 µM) | MIC [5]: 8 µg/mL (≈ 22 µM) | IC50 [6]: 1.53 µM | MIC50 [7]: > 128 µg/mL | MIC90 [7]: > 128 µg/mL | MIC [7]: > 128 µg/mL

O=[N+]([O-])c1cc(Cl)c2c(N3CCCC3)ccnc2c1O [Example 42, 5-Chloro-7-nitro-4-(pyrrolidin-1-yl)quinolin-8-ol]
MIC50 [1]: > 128 µg/mL | MIC90 [1]: > 128 µg/mL | MIC [1]: 128 µg/mL (≈ 436 µM) | IC50 [2]: 42 µM | IC50 [3]: 25.4 µM | IC50 [4]: 33 µM | MIC50 [5]: 32 µg/mL (≈ 109 µM) | MIC90 [5]: 32 µg/mL (≈ 109 µM) | MIC [5]: 32 µg/mL (≈ 109 µM) | IC50 [6]: 17.4 µM | MIC50 [7]: > 128 µg/mL | MIC90 [7]: > 128 µg/mL | MIC [7]: 128 µg/mL (≈ 436 µM)

Cl.O=[N+]([O-])c1cc(Cl)c2c(C(F)(F)F)ccnc2c1O [Example 73, 5-chloro-7-nitro-4-(trifluoromethyl)-quinolin-8-ol hydrochloride]
MIC50 [1]: 8 µg/mL | MIC90 [1]: 32 µg/mL | MIC [1]: 2 µg/mL | inhibitory effect against Acinetobacter baumannii compared with the reference drug nitroxoline ([1]; MIC comparison): comparable to that of the reference drug nitroxoline | IC50 [2]: 5.04 µM | IC50 [3]: 2.63 µM | IC50 [4]: 3.45 µM | MIC50 [5]: 1 µg/mL | MIC90 [5]: 2 µg/mL | MIC [5]: 1 µg/mL | IC50 [6]: 2.31 µM | MIC50 [7]: 8 µg/mL | MIC90 [7]: 64 µg/mL | MIC [7]: 8 µg/mL

COCCCOC1CCN(c2ccnc3c(O)c([N+](=O)[O-])cc(Cl)c23)CC1.Cl.Cl [Example 54, 5-chloro-4-(4-(3-methoxypropoxy)piperidin-1-yl)-7-nitroquinolin-8-ol dihydrochloride]
MIC50 [1]: 128 µg/mL | MIC90 [1]: > 128 µg/mL | MIC [1]: 64 µg/mL | IC50 [2]: 1.42 µM | IC50 [3]: 1.62 µM | IC50 [4]: 0.5 µM | MIC50 [5]: 16 µg/mL | MIC90 [5]: 16 µg/mL | MIC [5]: 16 µg/mL | IC50 [6]: 0.25 µM | MIC50 [7]: 32 µg/mL | MIC90 [7]: 64 µg/mL | MIC [7]: 64 µg/mL

O=[N+]([O-])c1ccc2c(O)ccnc2c1O [Example 30, 7-Nitroquinoline-4,8-diol]
MIC50 [1]: > 128 µg/mL | MIC90 [1]: > 128 µg/mL | MIC [1]: > 128 µg/mL | IC50 [2]: > 100 µM | IC50 [3]: > 100 µM | IC50 [4]: > 100 µM | MIC50 [5]: > 128 µg/mL | MIC90 [5]: > 128 µg/mL | MIC [5]: > 128 µg/mL | IC50 [6]: > 100 µM | MIC50 [7]: > 128 µg/mL | MIC90 [7]: > 128 µg/mL | MIC [7]: > 128 µg/mL

COC1CCN(c2ccnc3c(O)c([N+](=O)[O-])cc(Cl)c23)CC1 [Example 38, 5-Chloro-4-(4-methoxypiperidin-1-yl)-7-nitroquinolin-8-ol]
MIC50 [1]: 128 µg/mL (≈ 379 µM) | MIC90 [1]: 128 µg/mL (≈ 379 µM) | MIC [1]: 128 µg/mL (≈ 379 µM) | IC50 [2]: 6.72 µM | IC50 [3]: 3 µM | IC50 [4]: 2.36 µM | MIC50 [5]: 8 µg/mL (≈ 23.7 µM) | MIC90 [5]: 16 µg/mL (≈ 47.4 µM) | MIC [5]: 8 µg/mL (≈ 23.7 µM) | IC50 [6]: 1.87 µM | MIC50 [7]: > 128 µg/mL | MIC90 [7]: > 128 µg/mL | MIC [7]: 128 µg/mL (≈ 379 µM)

O=[N+]([O-])c1ccc2c(C(F)(F)F)ccnc2c1O [Example 62, 7-Nitro-4-trifluoromethylquinolin-8-ol]
MIC50 [1]: 4 µg/mL (≈ 15.5 µM) | MIC90 [1]: 4 µg/mL (≈ 15.5 µM) | MIC [1]: 4 µg/mL (≈ 15.5 µM) | IC50 [2]: 11.2 µM | IC50 [3]: 4.82 µM | IC50 [4]: 3.54 µM | MIC50 [5]: 2 µg/mL (≈ 7.75 µM) | MIC90 [5]: 4 µg/mL (≈ 15.5 µM) | MIC [5]: 2 µg/mL (≈ 7.75 µM) | IC50 [6]: 2.49 µM | MIC50 [7]: 8 µg/mL (≈ 31 µM) | MIC90 [7]: 8 µg/mL (≈ 31 µM) | MIC [7]: 4 µg/mL (≈ 15.5 µM) | inhibitory effect against Escherichia coli compared with the reference drug nitroxoline ([7]; MIC comparison): comparable to that of the reference drug nitroxoline
